# Results as given in patent US9073858B2, “Methods of targeted drug development” (priority 2010, dated 2015).
# Read-outs that look alike come from different tables or passages of the source.
# Columns and labels:
# EGFR = biological target: T1, EGFR (Homo sapiens, UniProt P00533); assay: EGFR in-cell Western (ICW) screening protocol; type: cell-based; set-up: unit not given here; settings: for ICW Screen: initial screen
# T1 construct: endogenous in cells; host or cells: A431 cells (ATCC CRL-1555)
# Outline: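 Serum-starved cells treated with compound 4 h at 37 °C, then stimulated with EGF (20 or 0 ng/ml solution added) in its continued presence. In-cell Western on fixed cells: phospho-EGFR (800 channel) normalised to total EGFR (700 channel), % inhibition calculated against EGF-stimulated and unstimulated no-compound wells.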
# [1] = test system: epithelial carcinoma A431 cell line; assay: MTT Cell Proliferation Assay, A431 cell line; type: cell-based; settings: for MTT (10 Point follow-up) ratio / MTT-72 h A431/MDBK (ratio): value in brackets; for MTT (10 Point follow-up) ratio: numerically MDBK over A431; for MTT-72 h A431/MDBK (ratio): numerically MDBK value over A431 value
# Outline: (§1)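 Cells plated overnight, then exposed 3 days at 37 °C, 5% CO2 to compound in growth medium with 0.5% FBS and 0.5% DMSO final (0.5% DMSO as control).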
# MDBK line = assay: MTT Cell Proliferation Assay, MDBK line; type: cell-based, bovine
# Outline: as §1
# [2] = Homo sapiens, A-431, 10 point follow-up, first value of pair, read-out: MTT (10 Point follow-up) A431
# [3] = Bos taurus, MDBK, 10 point follow-up, second value of pair, read-out: MTT (10 Point follow-up) MDBK
# [4] = 10 point follow-up, first value of pair, read-out: MTT (10 Point follow-up) A431
# [5] = 72 h, first value of A431/MDBK pair, read-out: MTT-72 h A431
# [6] = 10 point follow-up, second value of pair, read-out: MTT (10 Point follow-up) MDBK
# [7] = Homo sapiens, A-431, 72 h, 72 h, first value of A431/MDBK pair, read-out: MTT-72 h A431
# [8] = Bos taurus, MDBK, 72 h, second value of A431/MDBK pair, read-out: MTT-72 h MDBK
# T1 sequence (P00533 25-1210): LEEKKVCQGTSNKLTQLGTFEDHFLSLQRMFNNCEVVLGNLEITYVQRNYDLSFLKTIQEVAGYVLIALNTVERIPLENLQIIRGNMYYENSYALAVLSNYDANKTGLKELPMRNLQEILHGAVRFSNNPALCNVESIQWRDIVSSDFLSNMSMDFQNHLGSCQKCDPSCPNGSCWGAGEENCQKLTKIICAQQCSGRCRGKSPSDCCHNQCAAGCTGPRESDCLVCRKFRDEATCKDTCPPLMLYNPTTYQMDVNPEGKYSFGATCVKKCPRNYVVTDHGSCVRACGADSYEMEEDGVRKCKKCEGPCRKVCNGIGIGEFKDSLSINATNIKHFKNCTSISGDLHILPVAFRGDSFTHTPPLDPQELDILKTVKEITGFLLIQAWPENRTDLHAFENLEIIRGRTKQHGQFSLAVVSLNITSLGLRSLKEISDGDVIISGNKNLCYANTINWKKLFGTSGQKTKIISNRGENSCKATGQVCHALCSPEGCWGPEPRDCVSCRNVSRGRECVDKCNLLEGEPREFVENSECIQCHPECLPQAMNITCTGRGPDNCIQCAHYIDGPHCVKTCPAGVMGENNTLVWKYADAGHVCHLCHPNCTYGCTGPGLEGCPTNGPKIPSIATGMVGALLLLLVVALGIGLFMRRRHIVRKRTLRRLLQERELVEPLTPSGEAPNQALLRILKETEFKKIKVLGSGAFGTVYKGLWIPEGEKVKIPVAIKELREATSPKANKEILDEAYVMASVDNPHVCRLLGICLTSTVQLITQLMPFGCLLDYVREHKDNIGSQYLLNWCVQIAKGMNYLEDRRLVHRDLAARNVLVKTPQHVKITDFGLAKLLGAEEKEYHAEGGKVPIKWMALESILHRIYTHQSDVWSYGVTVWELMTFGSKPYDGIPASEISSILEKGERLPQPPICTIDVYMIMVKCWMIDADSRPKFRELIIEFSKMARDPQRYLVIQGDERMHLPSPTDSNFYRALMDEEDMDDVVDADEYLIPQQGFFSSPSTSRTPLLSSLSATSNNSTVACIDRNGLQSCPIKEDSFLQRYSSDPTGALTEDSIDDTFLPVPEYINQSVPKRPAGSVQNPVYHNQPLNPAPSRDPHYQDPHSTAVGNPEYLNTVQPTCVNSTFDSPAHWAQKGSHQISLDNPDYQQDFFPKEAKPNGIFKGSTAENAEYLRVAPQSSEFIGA
SMILES,ICW Screen (EGFR),"IC50 [1, 2]","IC50 [1, 4]","IC50 [1, 5]","IC50 [1, 7]",ICW Re-Test (EGFR),MTT (10 Point follow-up) ratio ([1]; 10 point follow-up),IC50 (MDBK line; [3]),IC50 (MDBK line; [6]),"IC50 (MDBK line; 72 h, second value of A431/MDBK pair, read-out: MTT-72 h MDBK)",MTT-72 h A431/MDBK (ratio) ([1]; 72 h),IC50 (MDBK line; [8]),"MTT-72 h % Max ([1]; 72 h, maximal effect printed after the ratio)"
Cc1ccnc(NC(c2ccc(Cl)cc2)c2ccc3cccnc3c2O)c1 (stereo not drawn) [compound 10481],25.82,798 nM,–,–,–,–,1.54,1230 nM,–,–,–,–,–
Cc1cccc(NC(c2ccc(C(F)(F)F)cc2)c2ccc3cccnc3c2O)n1 (stereo not drawn) [compound 10483],17.58,–,253 nM,260 nM,–,–,–,–,481 nM,490 nM,–,–,–
Cc1ccnc(NC(c2ccc(C(F)(F)F)cc2)c2ccc3cccnc3c2O)c1 (stereo not drawn) [compound 10486],25.02,275 nM,–,–,290 nM,–,3.07,844 nM,–,–,2.76,800 nM,–
Cc1cccc(NC(c2ccc3c(c2)OCO3)c2ccc3cccnc3c2O)n1 (stereo not drawn) [compound 10487],33.14,1330 nM,–,5510 nM,–,–,0.72,963 nM,–,–,0.96,5280 nM,–
Oc1c(C(c2ccccn2)N2CCN(Cc3ccccc3)CC2)ccc2cccnc12 (stereo not drawn) [compound 10534],28.31,–,–,–,10800 nM,–,–,–,–,–,0.85,9180 nM,–
CCN1CCN(C(c2ccc(C(F)(F)F)cc2)c2ccc3cccnc3c2O)CC1 (stereo not drawn) [compound 10535],44.02,2040 nM,–,–,2720 nM,52.63,1.43,2910 nM,–,–,1.45,3950 nM,–
OCCN1CCN(C(c2cccs2)c2ccc3cccnc3c2O)CC1 (stereo not drawn) [compound 10546],25.23,–,–,–,7030 nM,–,–,–,–,–,0.84,5920 nM,–
CCN1CCN(C(c2cccnc2)c2cc(Cl)c3cccnc3c2O)CC1 (stereo not drawn) [compound 10547],26.4,–,–,–,11400 nM,–,–,–,–,–,0.52,5960 nM,–
CN1CCN(C(c2ccccn2)c2ccc3cccnc3c2O)CC1 (stereo not drawn) [compound 10548],31.03,–,–,–,9050 nM,–,–,–,–,–,0.89,8070 nM,–
CCN1CCN(C(c2cccnc2)c2ccc3cccnc3c2O)CC1 (stereo not drawn) [compound 10550],31.84,–,–,–,9590 nM,–,–,–,–,–,0.79,7600 nM,–
CON1CCN(C(c2cccnc2)c2ccc3cccnc3c2O)CC1 (stereo not drawn) [compound 10551],29.14,–,–,–,20100 nM,–,–,–,–,–,0.57,11400 nM,–
Oc1c(C(Nc2nccs2)c2cccs2)ccc2cccnc12 (stereo not drawn) [compound 10602],57.72,3300 nM,–,–,3560 nM,43.06,0.71,2350 nM,–,–,0.65,2310 nM,–
Cc1cccc(NC(c2ccc(C(F)(F)F)cc2)c2ccc3cccnc3c2O)n1 (stereo not drawn) [compound 10628],30.02,311 nM,–,–,320 nM,–,–,689 nM,–,–,–,760 nM,–
Oc1cc2cccnc2cc1C(Nc1ccccn1)c1cccs1 (stereo not drawn) [compound 10938],40.36,–,–,–,25300 nM,24.99,–,–,–,–,0.88,22100 nM,–
COc1ccc(C(NC(=O)C2CCCCC2)c2cc([N+](=O)[O-])c3cccnc3c2O)cc1OC (stereo not drawn) [compound 10940],38.28,336 nM,–,–,13600 nM,72.45,1.77,594 nM,–,–,1.21,16600 nM,57%
CCOc1cc(C(NC(=O)C(C)(C)C)c2cc([N+](=O)[O-])c3cccnc3c2O)ccc1O (stereo not drawn) [compound 10941],27.61,1120 nM,–,–,5920 nM,67.81,1.56,1750 nM,–,–,1.02,6050 nM,–
Oc1c(C(Nc2cccnc2)c2ccc(C(F)(F)F)cc2)ccc2cccnc12 (stereo not drawn) [compound 10942],56.15,–,–,–,33300 nM,95.43,–,–,–,–,1.09,36200 nM,–
COc1ccc(Cl)cc1C(Nc1ccccn1)c1cc(Cl)c2cccnc2c1O (stereo not drawn) [compound 10943],44.28,1250 nM,–,–,1310 nM,68.79,1.50,1880 nM,–,–,1.60,2100 nM,–
Cc1ccc(C)c(C(Nc2cccnc2)c2cc(Cl)c3cccnc3c2O)c1 (stereo not drawn) [compound 10944],68.22,1860 nM,–,–,2030 nM,67.75,–,2730 nM,–,–,–,2960 nM,–
CCOc1ccc(C(Nc2cccnc2)c2cc(Cl)c3cccnc3c2O)cc1 (stereo not drawn) [compound 10945],82.22,–,–,–,2790 nM,81.41,0.76,–,–,–,0.67,1870 nM,–
O=[N+]([O-])c1cccc(C(Nc2cccnc2)c2cc(Cl)c3cccnc3c2O)c1 (stereo not drawn) [compound 10947],42.78,–,–,–,5150 nM,42.98,–,–,–,–,0.52,2660 nM,–
Cc1cccc(NC(c2ccccn2)c2ccc3ccc(C)nc3c2O)n1 (stereo not drawn) [compound 10948],44.24,–,–,–,8870 nM,30.99,–,–,–,–,1.34,11900 nM,–
CCCC(=O)NC(c1ccc(OC)c(OC)c1)c1cc(Cl)c2cccnc2c1O (stereo not drawn) [compound 10949],26.99,–,–,–,5630 nM,–,–,–,–,–,1.03,5790 nM,–
CC(C)C(=O)NC(c1cccs1)c1cc([N+](=O)[O-])c2cccnc2c1O (stereo not drawn) [compound 10950],33.87,540 nM,–,–,560 nM,99.56,1.63,878 nM,–,–,1.70,950 nM,–

# More lines, main results first:
ICW Screen (EGFR),"IC50 [1, 2]","IC50 [1, 4]","IC50 [1, 5]","IC50 [1, 7]",ICW Re-Test (EGFR),SMILES,MTT (10 Point follow-up) ratio ([1]; 10 point follow-up),IC50 (MDBK line; [3]),IC50 (MDBK line; [6]),"IC50 (MDBK line; 72 h, second value of A431/MDBK pair, read-out: MTT-72 h MDBK)",MTT-72 h A431/MDBK (ratio) ([1]; 72 h),IC50 (MDBK line; [8]),"MTT-72 h % Max ([1]; 72 h, maximal effect printed after the ratio)"
16.45,356 nM,–,–,–,–,Oc1c(C(Nc2ccccn2)c2ccccc2Cl)ccc2cccnc12 (stereo not drawn) [compound 10482],1.28,455 nM,–,–,–,–,–
26.3,–,305 nM,–,320 nM,–,Oc1c(C(Nc2ccccn2)c2ccc(Cl)cc2Cl)ccc2cccnc12 (stereo not drawn) [compound 10484],2.12,–,679 nM,–,2.70,850 nM,–
15.95,1850 nM,–,–,–,–,Cc1ccnc(NC(c2ccccc2F)c2ccc3cccnc3c2O)c1 (stereo not drawn) [compound 10488],1.20,2220 nM,–,–,–,–,–
31.55,1250 nM,–,–,1280 nM,–,Oc1cccnc1NC(c1ccc(F)cc1)c1ccc2cccnc2c1O (stereo not drawn) [compound 10509],1.56,1950 nM,–,–,1.60,2050 nM,–
12.86,517 nM,–,–,–,–,Oc1cccnc1NC(c1ccccc1F)c1ccc2cccnc2c1O (stereo not drawn) [compound 10512],1.92,991 nM,–,–,–,–,–
39.93,–,–,–,6520 nM,51.72,COc1ccc(C(Nc2ccccn2)c2ccc3cccnc3c2O)cc1OC (stereo not drawn) [compound 10518],–,–,–,–,0.83,5430 nM,–
26.6,1650 nM,–,–,–,–,Cc1ccnc(NC(c2ccc(F)cc2)c2ccc3cccnc3c2O)c1 (stereo not drawn) [compound 10522],1.14,1890 nM,–,–,–,–,–
38.96,–,–,–,5330 nM,30.44,COc1ccc(C(Nc2ccccn2)c2ccc3cccnc3c2O)cc1 (stereo not drawn) [compound 10524],–,–,–,–,0.95,5090 nM,–
64.09,–,–,–,1920 nM,69.21,Cc1ccc(NC(c2ccccc2)c2ccc3cccnc3c2O)cc1 (stereo not drawn) [compound 10664],–,–,–,–,1.12,2140 nM,–
37.96,–,–,–,5430 nM,57,CCOc1cc(C(Nc2cccnc2)c2ccc3cccnc3c2O)ccc1O (stereo not drawn) [compound 10936],–,–,–,–,1.05,5680 nM,–
32.68,–,–,–,5670 nM,33.81,Cc1ccnc(NC(c2ccccn2)c2ccc3cccnc3c2O)c1 (stereo not drawn) [compound 10939],–,–,–,–,1.20,6780 nM,–
